According to PubChem BioAssay (NCI):
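Cells were grown in 96-well plates and exposed to each compound for 48 hours at five concentrations; endpoints were interpolated linearly between bracketing concentrations, or set to the highest concentration if not reached. TGI: concentration producing complete growth inhibition.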

Tests used:
Assay in all cases: inhibition of tumour cell growth, NCI panel, 48 h
IGROV1 ovarian = tested on: IGROV1 ovarian
RPMI-8226 leukemia = tested on: RPMI-8226 leukemia
HOP-92 NSCLC = tested on: HOP-92 NSCLC
SNB-78 CNS = tested on: SNB-78 CNS
HCC-2998 colon = tested on: HCC-2998 colon
SN12C renal = tested on: SN12C renal
HL-60(TB) leukemia = tested on: HL-60(TB) leukemia
OVCAR-5 ovarian = tested on: OVCAR-5 ovarian
UO-31 renal = tested on: UO-31 renal
UACC-257 melanoma = tested on: UACC-257 melanoma
TK-10 renal = tested on: TK-10 renal
SW-620 colon = tested on: SW-620 colon
HOP-62 NSCLC = tested on: HOP-62 NSCLC
OVCAR-8 ovarian = tested on: OVCAR-8 ovarian
DMS 114 small cell lung = tested on: DMS 114 small cell lung
SF-268 CNS = tested on: SF-268 CNS
EKVX NSCLC = tested on: EKVX NSCLC
KM12 colon = tested on: KM12 colon
KM20L2 colon = tested on: KM20L2 colon
CCRF-CEM leukemia = tested on: CCRF-CEM leukemia
DMS 273 small cell lung = tested on: DMS 273 small cell lung
HT29 colon = tested on: HT29 colon
U251 CNS = tested on: U251 CNS
ACHN renal = tested on: ACHN renal
LXFL 529 NSCLC = tested on: LXFL 529 NSCLC
SK-MEL-28 melanoma = tested on: SK-MEL-28 melanoma
COLO 205 colon = tested on: COLO 205 colon
NCI-H23 lung = tested on: NCI-H23 lung
M14 melanoma = tested on: M14 melanoma
M19-MEL melanoma = tested on: M19-MEL melanoma
SF-539 CNS = tested on: SF-539 CNS
UACC-62 melanoma = tested on: UACC-62 melanoma
A549 NSCLC = tested on: A549 NSCLC
LOX IMVI melanoma = tested on: LOX IMVI melanoma
K-562 leukemia = tested on: K-562 leukemia
SK-MEL-2 melanoma = tested on: SK-MEL-2 melanoma
SR leukemia = tested on: SR leukemia
RXF 393 renal = tested on: RXF 393 renal
SNB-75 CNS = tested on: SNB-75 CNS
SNB-19 CNS = tested on: SNB-19 CNS
OVCAR-3 ovarian = tested on: OVCAR-3 ovarian
HCT-116 colon = tested on: HCT-116 colon
HOP-18 NSCLC = tested on: HOP-18 NSCLC
OVCAR-4 ovarian = tested on: OVCAR-4 ovarian
NCI-H460 lung = tested on: NCI-H460 lung
SK-MEL-5 melanoma = tested on: SK-MEL-5 melanoma
HCT-15 colon = tested on: HCT-15 colon
RXF-631 renal = tested on: RXF-631 renal
SF-295 CNS = tested on: SF-295 CNS
CAKI-1 renal = tested on: CAKI-1 renal
BT-549 breast = tested on: BT-549 breast
PC-3 prostate = tested on: PC-3 prostate
HS 578T breast = tested on: HS 578T breast
MOLT-4 leukemia = tested on: MOLT-4 leukemia
MDA-MB-231 breast = tested on: MDA-MB-231 breast
786-0 renal = tested on: 786-0 renal
MALME-3M melanoma = tested on: MALME-3M melanoma
NCI-H522 lung = tested on: NCI-H522 lung
A498 renal = tested on: A498 renal
NCI/ADR-RES ovarian = tested on: NCI/ADR-RES ovarian
SK-OV-3 ovarian = tested on: SK-OV-3 ovarian
T-47D breast = tested on: T-47D breast
MDA-N = tested on: MDA-N
DLD-1 colon = tested on: DLD-1 colon
DU-145 prostate = tested on: DU-145 prostate
MCF7 breast = tested on: MCF7 breast
MDA-MB-435 = tested on: MDA-MB-435
NCI-H226 lung = tested on: NCI-H226 lung

CCn1cnnc1-c1nsc2ccccc12
TGI (IGROV1 ovarian): > 100 µM
TGI (RPMI-8226 leukemia): > 100 µM
TGI (HOP-92 NSCLC): > 100 µM
TGI (SNB-78 CNS): > 100 µM
TGI (HCC-2998 colon): > 100 µM
TGI (SN12C renal): > 100 µM
TGI (HL-60(TB) leukemia): > 100 µM
TGI (OVCAR-5 ovarian): 92.2 µM
TGI (UO-31 renal): > 100 µM
TGI (UACC-257 melanoma): > 100 µM
TGI (TK-10 renal): > 100 µM
TGI (SW-620 colon): > 100 µM
TGI (HOP-62 NSCLC): > 100 µM
TGI (OVCAR-8 ovarian): > 100 µM
TGI (DMS 114 small cell lung): > 100 µM
TGI (SF-268 CNS): > 100 µM
TGI (EKVX NSCLC): > 100 µM
TGI (KM12 colon): > 100 µM
TGI (KM20L2 colon): > 100 µM
TGI (CCRF-CEM leukemia): > 100 µM
TGI (DMS 273 small cell lung): > 100 µM
TGI (HT29 colon): > 100 µM
TGI (U251 CNS): > 100 µM
TGI (ACHN renal): > 100 µM
TGI (LXFL 529 NSCLC): > 100 µM
TGI (SK-MEL-28 melanoma): > 100 µM
TGI (COLO 205 colon): > 100 µM
TGI (NCI-H23 lung): > 100 µM
TGI (M14 melanoma): > 100 µM
TGI (M19-MEL melanoma): > 100 µM
TGI (SF-539 CNS): > 100 µM
TGI (UACC-62 melanoma): > 100 µM
TGI (A549 NSCLC): > 100 µM
TGI (LOX IMVI melanoma): > 100 µM
TGI (K-562 leukemia): > 100 µM
TGI (SK-MEL-2 melanoma): > 100 µM
TGI (SR leukemia): > 100 µM
TGI (RXF 393 renal): > 100 µM
TGI (SNB-75 CNS): 41.8 µM
TGI (SNB-19 CNS): > 100 µM
TGI (OVCAR-3 ovarian): > 100 µM
TGI (HCT-116 colon): > 100 µM
TGI (HOP-18 NSCLC): > 100 µM
TGI (OVCAR-4 ovarian): > 100 µM
TGI (NCI-H460 lung): > 100 µM
TGI (SK-MEL-5 melanoma): > 100 µM
TGI (HCT-15 colon): > 100 µM

O=C1C(c2cnc3ccccc3n2)=C(O)c2ccccc21
TGI (IGROV1 ovarian): > 100 µM
TGI (RPMI-8226 leukemia): > 100 µM
TGI (RXF-631 renal): > 100 µM
TGI (HOP-92 NSCLC): > 100 µM
TGI (SF-295 CNS): > 88.1 µM
TGI (SNB-78 CNS): > 100 µM
TGI (HCC-2998 colon): > 100 µM
TGI (SN12C renal): > 100 µM
TGI (HL-60(TB) leukemia): > 88.5 µM
TGI (OVCAR-5 ovarian): > 100 µM
TGI (CAKI-1 renal): > 100 µM
TGI (UO-31 renal): > 100 µM
TGI (UACC-257 melanoma): > 95.9 µM
TGI (BT-549 breast): > 100 µM
TGI (TK-10 renal): > 100 µM
TGI (SW-620 colon): > 56.2 µM
TGI (HOP-62 NSCLC): > 100 µM
TGI (OVCAR-8 ovarian): > 100 µM
TGI (DMS 114 small cell lung): > 100 µM
TGI (SF-268 CNS): > 100 µM
TGI (EKVX NSCLC): > 100 µM
TGI (KM12 colon): > 41.1 µM
TGI (KM20L2 colon): > 100 µM
TGI (CCRF-CEM leukemia): > 100 µM
TGI (DMS 273 small cell lung): > 100 µM
TGI (HT29 colon): > 100 µM
TGI (PC-3 prostate): > 85.7 µM
TGI (HS 578T breast): > 100 µM
TGI (U251 CNS): > 100 µM
TGI (ACHN renal): > 100 µM
TGI (MOLT-4 leukemia): > 100 µM
TGI (LXFL 529 NSCLC): > 100 µM
TGI (SK-MEL-28 melanoma): > 100 µM
TGI (MDA-MB-231 breast): > 100 µM
TGI (COLO 205 colon): > 56.2 µM
TGI (786-0 renal): > 100 µM
TGI (NCI-H23 lung): > 100 µM
TGI (MALME-3M melanoma): > 100 µM
TGI (M14 melanoma): > 100 µM
TGI (M19-MEL melanoma): > 100 µM
TGI (NCI-H522 lung): > 100 µM
TGI (SF-539 CNS): > 100 µM
TGI (UACC-62 melanoma): > 100 µM
TGI (A549 NSCLC): > 100 µM
TGI (LOX IMVI melanoma): > 61.5 µM
TGI (A498 renal): > 100 µM
TGI (NCI/ADR-RES ovarian): > 100 µM
TGI (K-562 leukemia): > 100 µM
TGI (SK-OV-3 ovarian): > 46.4 µM
TGI (SK-MEL-2 melanoma): > 100 µM
TGI (SR leukemia): > 100 µM
TGI (RXF 393 renal): 36.1 µM
TGI (T-47D breast): > 100 µM
TGI (MDA-N): > 100 µM
TGI (SNB-75 CNS): 79.9 µM
TGI (SNB-19 CNS): > 100 µM
TGI (OVCAR-3 ovarian): > 100 µM
TGI (DLD-1 colon): > 100 µM
TGI (HCT-116 colon): > 100 µM
TGI (DU-145 prostate): > 100 µM
TGI (OVCAR-4 ovarian): > 100 µM
TGI (MCF7 breast): > 100 µM
TGI (NCI-H460 lung): > 100 µM
TGI (MDA-MB-435): > 100 µM
TGI (NCI-H226 lung): > 100 µM
TGI (SK-MEL-5 melanoma): > 100 µM
TGI (HCT-15 colon): 9.75 µM
